According to US12551570B2, “Compounds comprising cleavable linker and uses thereof” (IntoCell, Inc., priority 2019, dated 2026):

Assays:
[1] = Plasma stability test, mouse plasma; type: in vitro ADME; details: 37° C., 300 μM
Procedure: (§1) Compound A-2 or A-3 and MPS used as an internal standard were dissolved in DMSO to achieve a concentration of 60 mM. Then, each of human plasma (Biochemed 752PR-SC-PMG), mouse plasma (Biochemed 029-APSC-MP), rat plasma (Biochemed 031-APSC-MP), and beagle dog plasma (Biochemed 013-APSC-MP) were mixed with the solution of the compound and MPS to achieve a final concentration of 300 μM (final 0.5% DMSO). The resulting plasma mixtures were incubated at 37° C. Aliquots were taken before the reaction and after 1 day, 2 days, 4 days, and 7 days. Each aliquot was 300 μL. To complete the reaction, two-fold volume of acetonitrile was added, followed by brief vortexing and centrifugation for plasma protein precipitation. Each supernatant obtained after centrifugation was collected and analyzed by HPLC. Compounds A-2 and A-3 were detected and quantitated in the mouse and human plasma for up to 7 days (>95%). […] The results of the plasma stability studies are shown in Tables 3 and 4 and FIGS. 6 and 7.

[2] = Plasma stability test, human plasma; type: in vitro ADME; details: 37° C., 300 μM
Procedure: as §1

SMILES	Remaining Substrate, %, Mouse Plasma ([1]; 0 days)	Remaining Substrate, %, Mouse Plasma ([1]; 1 day)	Remaining Substrate, %, Mouse Plasma ([1]; 2 days)	Remaining Substrate, %, Mouse Plasma ([1]; 4 days)	Remaining Substrate, %, Mouse Plasma ([1]; 7 days)	Remaining Substrate, %, Human Plasma ([2]; 0 days)	Remaining Substrate, %, Human Plasma ([2]; 1 day)	Remaining Substrate, %, Human Plasma ([2]; 2 days)	Remaining Substrate, %, Human Plasma ([2]; 4 days)	Remaining Substrate, %, Human Plasma ([2]; 7 days)
CC(C)(C)OC(=O)N[C@@H](Cc1ccc(OS(=O)(=NCCOCCOCCOCCN=[N+]=[N-])Oc2ccccc2O[C@@H]2O[C@H](CO)[C@H](O)[C@H](O)[C@H]2O)cc1)C(=O)O (stereo partly drawn) [Compound A-2]	100%	102%	100%	97%	95%	100%	100%	104%	99%	101%
C[N+]1(Cc2ccc(OS(=O)(=NCCOCCOCCOCCN=[N+]=[N-])Oc3ccccc3O[C@@H]3O[C@H](CO)[C@H](O)[C@H](O)[C@H]3O)cc2)CCCC[C@@H]1C(=O)Nc1ccccc1 (stereo partly drawn) [Compound A-3]	100%	94%	90%		92%	100%	97%	98%		99%
